# Test results taken from patent publication US20240376124A1, “Macrocyclic Kinase Inhibitors” (Incyte Corporation, priority 2023, published 2024).
# “And” between values parts separate entries of the source, which are not always exact repeats. Equal values may be shown once.
# Columns and labels:
# [1] = target: T1, pseudo-kinase domain (JH2, amino-acids 536-812) of human V617F mutant JAK2 (Homo sapiens, UniProt O60674, F794H/V617F/W659A/W777A); assay: JAK2 LanthaScreen JH2-V617F Binding Assay; details: 50 nM tracer, read-out: JH2BINDING—V617F IC50
# T1 construct: pseudo-kinase domain (JH2, amino-acids 536-812 with 3 surface mutations W659A, W777A, F794H); His (C); purchased BPS Bioscience 79498; host or cells: baculovirus expression system
# T1 sequence (O60674 536-812 V617F/W659A/W777A/F794H): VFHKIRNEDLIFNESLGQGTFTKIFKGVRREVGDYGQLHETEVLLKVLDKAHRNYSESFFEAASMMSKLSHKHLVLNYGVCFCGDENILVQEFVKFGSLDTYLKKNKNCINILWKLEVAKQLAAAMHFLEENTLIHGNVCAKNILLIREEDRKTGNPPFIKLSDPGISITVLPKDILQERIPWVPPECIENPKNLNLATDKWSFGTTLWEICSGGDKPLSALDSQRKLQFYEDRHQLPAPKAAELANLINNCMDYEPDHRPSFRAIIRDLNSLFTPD
# Description: Example C. JAK2 LanthaScreen JH2-V617F Binding Assay
# (§1) JAK2 JH2-V617F binding assay utilizes pseudo-kinase domain (JH2, amino-acids 536-812 with 3 surface mutations W659A, W777A, F794H) of human V617F mutant JAK2 expressed as C-terminal His-Avi-tagged, biotinylated protein in a baculovirus expression system (BPS Bioscience, Catalog #79498). The assay was conducted in black 384-well polystyrene plates in a final reaction volume of 20 μL. JAK2 JH2-V617F (0.26 nM) was incubated with compounds (100 nL serially diluted in DMSO) in the presence of 50 nM Fluorescent JAK2-JH2 Tracer (MedChem Express Catalog #HY-102055) and 0.25 nM Streptavidin-Tb cryptate (Cisbio Part #610SATLB) in assay buffer (50 mM Tris, pH=7.5, 10 mM MgCl2, 0.01% Brij-35, 0.1% BSA, 1 mM EGTA, 5% Glycerol and 5 mM DTT). Non-specific binding was accessed in the presence of 2 mM ATP. After incubation for 1 hour at 25° C., LanthaScreen signals were read on a PHERAstar FS plate reader (BMG LABTECH). Data was analyzed with IDBS XLfit and GraphPad Prism 5.0 software using a four parameter dose response curve to determine IC50 for each compound.
# [2] = target: T2, pseudo-kinase domain (JH2, amino-acids 536-812) of human Wild Type JAK2 (Homo sapiens, UniProt O60674, F794H/W659A/W777A); assay: JAK2 LanthaScreen JH2-WT Binding Assay; details: 50 nM tracer, read-out: JH2BIND_WT IC50
# T2 construct: pseudo-kinase domain (JH2, amino-acids 536-812 with 3 surface mutations W659A, W777A, F794H); His (C); purchased BPS Bioscience 79463; host or cells: baculovirus expression system
# T2 sequence (O60674 536-812 W659A/W777A/F794H): as the sequence (O60674 536-812 V617F/W659A/W777A/F794H) above, with F82V counted along it
# Description: Example B. JAK2 LanthaScreen JH2-WT Binding Assay
# as §1, with “JH2-WT” for “JH2-V617F”, “Wild Type” for “V617F mutant”, “#79463).” for “#79498).”, “JH2-WT (0.145” for “JH2-V617F (0.26”
# [3] = target: T3, catalytic domain (JH1, amino acids 826-1132) of human JAK2 (Homo sapiens, UniProt O60674); assay: JAK2 LanthaScreen JH1 binding assay; details: JAK2 JH1, 50 nM tracer; read-out: JH1BIND IC50
# T3 construct: catalytic domain (JH1, amino acids 826-1132) of human JAK2; FLAG (N); purchased Carna Biosciences 08-445-20N; host or cells: baculovirus expression system
# T3 sequence (O60674 826-1132): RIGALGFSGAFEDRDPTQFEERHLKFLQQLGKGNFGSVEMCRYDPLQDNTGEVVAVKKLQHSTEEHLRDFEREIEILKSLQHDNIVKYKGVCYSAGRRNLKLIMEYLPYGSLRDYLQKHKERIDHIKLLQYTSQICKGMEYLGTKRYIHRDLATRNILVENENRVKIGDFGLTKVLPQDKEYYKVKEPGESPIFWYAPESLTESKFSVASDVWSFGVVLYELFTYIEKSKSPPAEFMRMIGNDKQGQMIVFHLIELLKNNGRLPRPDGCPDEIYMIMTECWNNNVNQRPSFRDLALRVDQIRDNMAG
# Description: Example A. JAK2 LanthaScreen […] Binding Assay
# JAK2 JH1 binding assay utilizes catalytic domain (JH1, amino acids 826-1132) of human JAK2 expressed as N-terminal FLAG-tagged, biotinylated protein in a baculovirus expression system (Carna Biosciences, Product #08-445-20N). The assay was conducted in black 384-well polystyrene plates in a final reaction volume of 20 μL. JAK2 JH1 (1.5 nM) was incubated with compounds (100 nL serially diluted in DMSO) in the presence of 50 nM fluorescent JAK2-JH1 tracer and 0.5 nM Streptavidin-Tb cryptate (Cisbio Part #610SATLB) in assay buffer (50 mM Tris, pH=7.5, 10 mM MgCl2, 0.01% Brij-35, 0.1% BSA, 1 mM EGTA, […] and 5 mM DTT). Non-specific binding was accessed in the presence of 2 mM ATP. After incubation for 2 hours at 25° C., LanthaScreen signals were read on a PHERAstar FS plate reader (BMG LABTECH).
# Data was analyzed with IDBS XLfit and GraphPad Prism 5.0 software using a four parameter dose response curve to determine IC50 for each compound.
# [4] = target: T4, catalytic domain (JH1, amino acids 808-1132) of human JAK2 (Homo sapiens, UniProt O60674); assay: JAK2 HTRF Enzyme Activity Assay; type: biochemical; details: ATP 30 μM; read-out: ENZ 30UMATP IC50
# T4 construct: catalytic domain (JH1, amino acids 808-1132) of human JAK2; His (N); purchased BPS Bioscience 40450; host or cells: baculovirus expression system
# T4 sequence (O60674 808-1132): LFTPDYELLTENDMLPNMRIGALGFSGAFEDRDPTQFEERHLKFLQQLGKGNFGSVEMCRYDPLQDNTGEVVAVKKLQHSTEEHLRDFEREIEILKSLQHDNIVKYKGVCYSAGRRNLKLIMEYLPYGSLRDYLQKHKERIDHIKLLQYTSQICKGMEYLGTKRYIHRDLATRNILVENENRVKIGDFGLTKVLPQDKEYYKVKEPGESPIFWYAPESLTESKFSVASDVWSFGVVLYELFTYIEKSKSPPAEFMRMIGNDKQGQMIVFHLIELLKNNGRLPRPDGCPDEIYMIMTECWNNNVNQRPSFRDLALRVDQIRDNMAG
# Description: Example D. JAK2 HTRF Enzyme Activity Assay
# JAK2 enzyme activity assays utilize catalytic domain (JH1, amino acids 808-1132) of human JAK2 expressed as N-terminal His-tagged protein in a baculovirus expression system (BPS Bioscience, Catalog #40450). The assays was conducted in black 384-well polystyrene plates in a final reaction volume of 20 μL. JAK2 (0.015 nM) was incubated with compounds (100 nL serially diluted in DMSO) in the presence of ATP (30 μM or 1 mM) and 500 nM Biotin-labeled EQEDEPEGDYFEWLE (SEQ ID NO.: 1) peptide (BioSource International, custom synthesis) in assay buffer (50 mM Tris, pH=7.5, 10 mM MgCl2, 0.01% Brij-35, 0.1% BSA, 1 mM EGTA, 5% Glycerol and 5 mM DTT) for 60 minutes at 25° C. The reactions were stopped by the addition of 10 μL of detection buffer (50 mM Tris, pH 7.8, 0.5 mg/mL BSA, 150 mM NaCl), supplemented with EDTA, LANCE Eu-W1024 anti-phosphotyrosine (PY20), (PerkinElmer, Catalog #AD0067) and Streptavidin SureLight APC (PerkinElmer Catalog #CR130-100), for a final concentration of 15 mM, 1.5 nM and 75 nM, respectively. HTRF signals were read after 30 minutes incubation at room temperature on a PHERAstar FS plate reader (BMG LABTECH). Data was analyzed with IDBS XLfit and GraphPad Prism 5.0 software using a four parameter dose response curve to determine IC50 for each compound. The compounds of the disclosure were tested in one or more of the assays described in Examples A-D, and the resulting data are shown in Table A.
Compound,IC50 [1],IC50 [2],IC50 [3],IC50 [4]
"N-((3^1r,3^4s)-2^7-(3-Methoxy-1-methyl-1H-pyrazol-4-yl)-2^3-(methyl-d3)-2^2-oxo-2^1,2^2,2^3,2^6-tetrahydro-8-oxa-2(8,1)-imidazo[4,5-d]pyrrolo[2,3-b]pyridina-1(1,4)-benzena-3(1,4)-cyclohexanacyclooctaphane-3^4-yl)cyclopropanecarboxamide [Example 5]",≤ 10 nM,≤ 10 nM,> 1000 nM,> 1000 nM
"[2H]C([2H])([2H])n1c(=O)n2c3c4c(c(-c5cn(CC6CC6)nc5F)[nH]c4ncc31)-c1ccc(cc1)OCC/C=C/C[C@]1(NC(=O)[C@H]3C[C@H]3F)CC[C@@H]2CC1 [Example 14, (1R,2R)-N-((3^1S,3^4s,E)-2^7-(1-(cyclopropylmethyl)-3-fluoro-1H-pyrazol-4-yl)-2^3-(methyl-d3)-2^2-oxo-2^1,2^2,2^3,2^6-tetrahydro-9-oxa-2(8,1)-imidazo[4,5-d]pyrrolo[2,3-b]pyridina-1(1,4)-benzena-3(1,4)-cyclohexanacyclononaphan-5-en-3^4-yl)-2-fluorocyclopropane-1-carboxamide]",≤ 10 nM,≤ 10 nM,500 to 1000 nM and > 1000 nM,500 to 1000 nM and > 1000 nM
"[2H]C([2H])([2H])n1c(=O)n2c3c4c(c(-c5cn(CC)nc5F)[nH]c4ncc31)-c1ccc(cc1)OCC/C=C/C[C@]1(NC(=O)[C@H]3C[C@H]3F)CC[C@@H]2CC1 [Example 12, (1R,2R)-N-((3^1S,3^4s,E)-2^7-(1-ethyl-3-fluoro-1H-pyrazol-4-yl)-2^3-(methyl-d3)-2^2-oxo-2^1,2^2,2^3,2^6-tetrahydro-9-oxa-2(8,1)-imidazo[4,5-d]pyrrolo[2,3-b]pyridina-1(1,4)-benzena-3(1,4)-cyclohexanacyclononaphan-5-en-3^4-yl)-2-fluorocyclopropane-1-carboxamide]",≤ 10 nM,≤ 10 nM,500 to 1000 nM and > 1000 nM,500 to 1000 nM and > 1000 nM
"[2H]C([2H])([2H])n1c(=O)n2c3c4c(c(-c5cn(C)nc5OC)[nH]c4ncc31)-c1ccc(cc1)OC/C=C/C[C@]1(NC(=O)C3CC3)CC[C@@H]2CC1 [Example 1, N-((3^1s,3^4s,E)-2^7-(3-Methoxy-1-methyl-1H-pyrazol-4-yl)-2^3-(methyl-d3)-2^2-oxo-2^1,2^2,2^3,2^6-tetrahydro-8-oxa-2(8,1)-imidazo[4,5-d]pyrrolo[2,3-b]pyridina-1(1,4)-benzena-3(1,4)-cyclohexanacyclooctaphan-5-en-3^4-yl)cyclopropanecarboxamide]",≤ 10 nM,≤ 10 nM,> 1000 nM,> 1000 nM
"[2H]C([2H])([2H])n1c(=O)n2c3c4c(c(-c5cn(C)nc5OC)[nH]c4ncc31)-c1ccc(cc1)C1(/C=C/C[C@]3(NC(=O)C4CC4)CC[C@@H]2CC3)CC1 [Example 6, N-((1′s,4′s,E)-7′-(3-Methoxy-1-methyl-1H-pyrazol-4-yl)-3′-(methyl-d3)-2′-oxospiro[cyclopropane-1,7′-2(8,1)-imidazo[4,5-d]pyrrolo[2,3-b]pyridina-1(1,4)-benzena-3(1,4)-cyclohexanacycloheptaphanen]-5′-en-4′-yl)cyclopropanecarboxamide]",≤ 10 nM,≤ 10 nM,> 1000 nM,> 1000 nM
"[2H]C([2H])([2H])n1c(=O)n2c3c4c(c(-c5cn(C)nc5OC)[nH]c4ncc31)-c1ccc(cc1)OCCC/C=C/C[C@]1(NC(=O)C3CC3)CC[C@@H]2CC1 [Example 3, N-((3^1s,3^4s,E)-2^7-(3-Methoxy-1-methyl-1H-pyrazol-4-yl)-2^3-(methyl-d3)-2^2-oxo-2^1,2^2,2^3,2^6-tetrahydro-10-oxa-2(8,1)-imidazo[4,5-d]pyrrolo[2,3-b]pyridina-1(1,4)-benzena-3(1,4)-cyclohexanacyclodecaphan-5-en-3^4-yl)cyclopropanecarboxamide]",≤ 10 nM,≤ 10 nM,> 1000 nM,> 1000 nM
"[2H]C([2H])([2H])n1c(=O)n2c3c4c(c(-c5cn(CC)nc5F)[nH]c4ncc31)-c1ccc(cc1)OCCC(O)CC[C@]1(NC(=O)[C@H]3C[C@H]3F)CC[C@@H]2CC1 (stereo partly drawn) [Example 9, (1R,2R)—N-((3^1S,3^4s)-2^7-(1-Ethyl-3-fluoro-1H-pyrazol-4-yl)-6-hydroxy-2^3-(methyl-d)-2^2-oxo-2^1,2^2,2^3,2^6-tetrahydro-9-oxa-2(8,1)-imidazo[4,5-d]pyrrolo[2,3-b]pyridina-1(1,4)-benzena-3(1,4)-cyclohexanacyclononaphane-3^4-yl)-2-fluorocyclopropane-1-carboxamide]",≤ 10 nM,≤ 10 nM,500 to 1000 nM,> 1000 nM
"[2H]C([2H])([2H])n1c(=O)n2c3c4c(c(-c5cnn(C)c5)[nH]c4ncc31)-c1ccc(cc1)OCC/C=C/C[C@]1(NC(=O)[C@H]3C[C@H]3F)CC[C@@H]2CC1 [Example 10, (1R,2R)-2-fluoro-N-((3^1S,3^4s,E)-2^3-(methyl-d3)-2^7-(1-methyl-1H-pyrazol-4-yl)-2^2-oxo-2^1,2^2,2^3,2^6-tetrahydro-9-oxa-2(8,1)-imidazo[4,5-d]pyrrolo[2,3-b]pyridina-1(1,4)-benzena-3(1,4)-cyclohexanacyclononaphan-5-en-3^4-yl)cyclopropane-1-carboxamide]",≤ 10 nM,≤ 10 nM,500 to 1000 nM,500 to 1000 nM
